# Measured values taken from patent US8450494B2, “Disubstituted benzamide derivatives as glucokinase (GK) activators” (Cadila Healthcare Limited, priority 2010, dated 2013).
# Target: T1, glucokinase (GK) enzyme (Homo sapiens, UniProt P35557)
# T1 sequence (P35557 1-465): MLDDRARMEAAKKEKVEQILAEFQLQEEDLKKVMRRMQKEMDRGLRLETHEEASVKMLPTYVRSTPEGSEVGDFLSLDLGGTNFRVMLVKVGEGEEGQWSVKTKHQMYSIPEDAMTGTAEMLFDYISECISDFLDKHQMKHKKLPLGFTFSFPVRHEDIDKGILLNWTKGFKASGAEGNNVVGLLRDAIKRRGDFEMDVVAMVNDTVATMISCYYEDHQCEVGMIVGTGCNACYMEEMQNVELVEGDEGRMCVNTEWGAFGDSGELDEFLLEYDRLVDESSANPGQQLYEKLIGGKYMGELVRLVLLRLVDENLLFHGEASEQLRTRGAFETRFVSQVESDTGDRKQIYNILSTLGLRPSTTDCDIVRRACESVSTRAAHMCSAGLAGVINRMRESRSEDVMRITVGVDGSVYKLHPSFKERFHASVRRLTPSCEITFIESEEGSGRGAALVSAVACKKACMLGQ
# Experiment: In-vitro glucokinase (GK) enzyme activation assay (coupled with glucose-6-phosphate dehydrogenase, absorbance at 340)
# Format: biochemical
# Conditions: glucose 2.5 mM, ATP 1 mM; for activity at 0.1 µM / activity at 1 µM / activity at 5 µM / activity at 10 µM: read-out: % of GK activity wrt DMSO
# Experimental: The compound of the invention was incubated with glucokinase (GK) enzyme (0.2 units) for 10 minutes in assay buffer at 26° C. After incubation, addition of glucose-6-phosphate dehydrogenase (2.5 units), ATP (1 mM) and glucose (2.5 mM). Absorbance is measured at 340 nm for 15 minutes with 10 second interval using UV transparent plate in kinetic mode on Spectramax-190 at 30° C.
Structure (SMILES),activity at 0.1 µM (compound 0.1 uM),activity at 1 µM (compound 1 uM),activity at 5 µM (compound 5 uM),activity at 10 µM (compound 10 uM),% of GK activity wrt DMSO (compound 0.1 uM),% of GK activity wrt DMSO (compound 1 uM),% of GK activity wrt DMSO (compound 5 uM),% of GK activity wrt DMSO (compound 10 uM)
"CCOC(=O)c1cnc(NC(=O)c2cc(Oc3ccc(-c4nnc(C)o4)cc3)cc(OC(C)COC)c2)s1 (stereo not drawn) [Example 2.16, Ethyl 2-{3-[(1-methoxypropan-2-yl)oxy]-5-[4-(5-methyl-1,3,4-oxadiazol-2-yl)phenoxy]benzamido}thiazole-5-carboxylate]",101%,144%,201%,205%,–,–,–,–
"COCC(C)Oc1cc(Oc2ccc(-c3nnc(C)o3)cc2)cc(C(=O)Nc2nc(C(=O)O)cs2)c1 (stereo not drawn) [Example 2.17, 2-{3-[(1-Methoxypropan-2-yl)oxy]-5-[4-(5-methyl-1,3,4-oxadiazol-2-yl)phenoxy]benzamido}thiazole-4-carboxylic acid]",113%,170%,306%,350%,–,–,–,–
"COCC(C)Oc1cc(Oc2ccc(-c3nnc(C)o3)cc2)cc(C(=O)Nc2ncc(C(=O)O)s2)c1 (stereo not drawn) [Example 2.18, 2-{3-[(1-Methoxypropan-2-yl)oxy]-5-[4-(5-methyl-1,3,4-oxadiazol-2-yl)phenoxy]benzamido}thiazole-5-carboxylic acid]",105%,149%,251%,260%,–,–,–,–
"CCOC(=O)c1csc(NC(=O)c2cc(Oc3ccc(-c4nnc(C)o4)cc3)cc(OC(C)COC)c2)n1 (stereo not drawn) [Example 2.19, Ethyl 2-{3-[(1-methoxypropan-2-yl)oxy]-5-[4-(5-methyl-1,3,4-oxadiazol-2-yl)phenoxy]benzamido}thiazole-4-carboxylate]",106%,188%,318%,344%,–,–,–,–
"COC[C@H](C)Oc1cc(Oc2ccc(-c3nnc(C)o3)cc2)cc(C(=O)Nc2nc(C)cs2)c1 [Example 2.20, (S)-3-((1-Methoxypropan-2-yl)oxy)-5-(4-(5-methyl-1,3,4-oxadiazol-2-yl)phenoxy)-N-(4-methylthiazol-2-yl)benzamide]",251%,405%,436%,408%,–,–,–,–
"COCC(C)Oc1cc(Oc2cccc(-c3nnc(C)o3)c2)cc(C(=O)Nc2nccs2)c1 (stereo not drawn) [Example 2.21, 3-((1-Methoxypropan-2-yl)oxy)-5-(3-(5-methyl-1,3,4-oxadiazol-2-yl)phenoxy)-N-(thiazole-2-yl)benzamide]",179%,287%,318%,293%,–,–,–,–
"COCC(C)Oc1cc(Oc2ccc(-c3nnc(CC(C)C)o3)cc2)cc(C(=O)Nc2nccs2)c1 (stereo not drawn) [Example 2.22, 3-(4-(5-Isobutyl-1,3,4-oxadiazol-2-yl)phenoxy)-5-((1-methoxypropan-2-yl)oxy)-N-(thiazol-2-yl)benzamide]",153%,323%,436%,418%,–,–,–,–
"CCc1nnc(-c2ccc(Oc3cc(OC(C)COC)cc(C(=O)Nc4nccs4)c3)cc2)o1 (stereo not drawn) [Example 2.25, 3-(4-(5-Ethyl-1,3,4-oxadiazol-2-yl)phenoxy)-5-((1-methoxypropan-2-yl)oxy)-N-(thiazol-2-yl)benzamide]",224%,384%,439%,418%,–,–,–,–
"COCC(C)Oc1cc(Oc2ccc(-c3nnc(C4CC4)o3)cc2)cc(C(=O)Nc2nccs2)c1 (stereo not drawn) [Example 2.28, 3-(4-(5-Cyclopropyl-1,3,4-oxadiazol-2-yl)phenoxy)-5-((1-methoxypropan-2-yl)oxy)-N-(thiazol-2-yl)benzamide]",223%,450%,493%,488%,–,–,–,–
COCC(C)Oc1cc(Oc2ccc(-c3nnc(C4CCCC4)o3)cc2)cc(C(=O)Nc2nccs2)c1 (stereo not drawn) [Example 2.31],–,–,–,–,252.3%,433.6%,518.5%,470.8%
"COCC(C)Oc1cc(Oc2ccc(-c3nnc(C)o3)cc2)cc(C(=O)Nc2ncc(Br)s2)c1 (stereo not drawn) [Example 2.36, N-(5-Bromothiazol-2-yl)-3-((1-methoxypropan-2-yl)oxy)-5-(4-(5-methyl-1,3,4-oxadiazol-2-yl)phenoxy)benzamide]",210%,271%,316%,302%,–,–,–,–
"COC[C@H](C)Oc1cc(Oc2ccc(-c3nnc(C)o3)cc2)cc(C(=O)Nc2ncc(C#N)s2)c1 [Example 2.42, (S)—N-(5-Cyanothiazol-2-yl)-3-((1-methoxypropan-2-yl)oxy)-5-(4-(5-methyl-1,3,4-oxadiazol-2-yl)phenoxy)benzamide]",126%,223%,306%,333%,–,–,–,–
